Laboratory results: patent US11753403B2, “EIF4E inhibitors and uses thereof” (PIC Therapeutics, Inc., priority 2020, dated 2023)
pIC50: −log10 of the molar value.

target: Human eIF4E (aa 28-217) / biotin labeled 4G2 peptide (Homo sapiens (Human), UniProt P06730); assay: Human eIF4E/4G2 binding assay (TR-FRET); details: Human eIF4E/4G2 TR-FRET binding assay; head says IC50, legend says EC50
Procedure, shortened: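 Refolded His-tagged human eIF4E (aa 28-217), 82.5 nM working stock, preincubated 4 h at RT with compounds (10-point 2-fold series) in NaPi pH 6.5 buffer with DTT and gamma globulin. Biotin-4G2 peptide then added for 20 min, followed by Eu-streptavidin/APC-anti-His for 20 min; TR-FRET 665/615 nm ratio normalized, IC50 fitted.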

Chain of Human eIF4E (aa 28-217) / biotin labeled 4G2 peptide (P06730 28-217): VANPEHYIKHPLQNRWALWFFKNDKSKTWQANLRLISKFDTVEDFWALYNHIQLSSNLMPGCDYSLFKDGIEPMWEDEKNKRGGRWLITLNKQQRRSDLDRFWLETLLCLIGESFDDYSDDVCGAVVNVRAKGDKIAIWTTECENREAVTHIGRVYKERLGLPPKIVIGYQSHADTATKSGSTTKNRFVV

Structure (SMILES)	pIC50
CC(C)Cc1sc(N(CCC(=O)O)Cc2ccccc2)nc1-c1ccc(Cl)cc1 [I-93]	5.00 to 6.00
CC(C)Cc1sc(NCC(C(=O)O)N(C)Cc2ccccc2)nc1-c1ccc(Cl)c(Cl)c1 (centres unmarked) [I-114, 2-(benzyl(methyl)amino)-3-(4-(3,4-dichlorophenyl)-5-isobutylthiazol-2-ylamino)propanoic acid]	5.00 to 6.00
C=C(C)c1sc(NCC(Cc2ccccc2)C(=O)O)nc1-c1ccc(Cl)c(Cl)c1 (centres unmarked) [I-185, 2-benzyl-3-(4-(3,4-dichlorophenyl)-5-(prop-1-en-2-yl)thiazol-2-ylamino)propanoic acid]	5.00 to 6.00
O=C(O)c1sc(C2CCCC2)cc1Nc1nc(CCc2ccccc2)c(-c2ccc(Cl)c(Cl)c2)s1 [I-309]	≥ 6.00
CC(C)Cc1sc(N(CCC(=O)O)Cc2cccs2)nc1-c1ccc(Cl)c(Cl)c1 [I-65]	≥ 6.00
O=C(O)C(CNc1nc(-c2ccc(Cl)c(Cl)c2)c(C2CC2)s1)Cc1cccc(F)c1 (centres unmarked) [I-14]	5.00 to 6.00
CCOC(=O)N1CCN(c2nc(-c3ccc(Cl)c(Cl)c3)c(CC(C)C)s2)CC1C(=O)O (centres unmarked) [I-245, 4-(4-(3,4-dichlorophenyl)-5-isobutylthiazol-2-yl)-1-(ethoxycarbonyl)piperazine-2-carboxylic acid]	5.00 to 6.00
CC(C)Cc1sc(NCC(NC(=O)c2ccccc2)C(=O)O)nc1-c1ccc(Cl)c(Cl)c1 (centres unmarked) [I-136, 2-benzamido-3-(4-(3,4-dichlorophenyl)-5-isobutylthiazol-2-ylamino)propanoic acid]	5.00 to 6.00
CC(C)Cc1sc(N(CCC(=O)O)Cc2ccccc2)nc1-c1cc(F)c(F)c(F)c1 [I-81]	5.00 to 6.00
CC(C)Cc1sc(N(CCC(=O)O)Cc2ccccc2)nc1-c1cccc(Cl)c1 [I-79]	5.00 to 6.00
CC(C)Cc1sc(Nc2ccccc2C#N)nc1-c1ccc(Cl)c(Cl)c1 [I-286]	< 5.00
CC(C)Cc1sc(N(CCS(=O)(=O)NC(=O)CCN)Cc2ccccc2)nc1-c1ccc(Cl)c(Cl)c1 [I-188]	< 5.00
CC(C)Cc1sc(N(CCCCN)CCC(=O)O)nc1-c1ccc(Cl)c(Cl)c1 [I-146, 3-((4-aminobutyl)(4-(3,4-dichlorophenyl)-5-isobutylthiazol-2-yl)amino)propanoic acid]	< 5.00
O=C(O)C(CNc1nc(-c2ccc(Cl)c(Cl)c2)c(C2CCC2)s1)Cc1ccccc1 (centres unmarked) [I-178]	5.00 to 6.00
CC(C)Cc1sc(N(CCC(=O)NS(C)(=O)=O)Cc2ccccc2)nc1-c1ccc(Cl)c(Cl)c1 [I-97, 3-(benzyl(4-(3,4-dichlorophenyl)-5-isobutylthiazol-2-yl)amino)-N-(methylsulfonyl)propanamide]	5.00 to 6.00
CC(C)Cc1sc(N2CCN(C(=O)OC(C)C)C(C(=O)O)C2)nc1-c1ccc(Cl)c(Cl)c1 (centres unmarked) [I-253, 4-(4-(3,4-dichlorophenyl)-5-isobutylthiazol-2-yl)-1-(isopropoxycarbonyl)piperazine-2-carboxylic acid]	5.00 to 6.00
O=C(O)c1sc(NCC(Cc2ccccc2)C(=O)O)nc1-c1ccc(Cl)c(Cl)c1 (centres unmarked) [I-183, 2-(2-carboxy-3-phenylpropylamino)-4-(3,4-dichlorophenyl)thiazole-5-carboxylic acid]	< 5.00
CC(C)Cc1sc(NCC(CCCCN(C)C)C(=O)O)nc1-c1ccc(Cl)c(Cl)c1 (centres unmarked) [I-145, 2-((4-(3,4-dichlorophenyl)-5-isobutylthiazol-2-ylamino)methyl)-6-(dimethylamino) hexanoic acid]	< 5.00
CC(C)Cc1sc(N(CCC(=O)NCc2ncc[nH]2)Cc2ccccc2)nc1-c1ccc(Cl)c(Cl)c1 [I-195]	< 5.00
O=C(O)CCN(Cc1ccccc1)c1nc(-c2ccc(Cl)c(Cl)c2)c(C2CC2)s1 [I-56]	5.00 to 6.00
CC(C)Cc1sc(N(CCC(=O)O)Cc2ccccc2)nc1-c1cc(Cl)c(Cl)c(Cl)c1 [I-111]	≥ 6.00
CC(C)CCc1sc(NCC(Cc2ccccc2)C(=O)O)nc1-c1ccc(Cl)c(Cl)c1 (centres unmarked) [I-180]	≥ 6.00
CC(C)Cc1sc(N(CCC(N)=O)CCC(=O)O)nc1-c1ccc(Cl)c(Cl)c1 [I-61]	< 5.00
CC(C)Cc1sc(N(CC(=N)N)Cc2ccccc2)nc1-c1ccc(Cl)c(Cl)c1 [I-231, 2-(benzyl(4-(3,4-dichlorophenyl)-5-isobutylthiazol-2-yl)amino)acetimidamide]	< 5.00
COCCN(CCC(=O)O)c1nc(-c2ccc(Cl)c(Cl)c2)c(CC(C)C)s1 [I-67]	5.00 to 6.00

The remaining lines, values ahead:

pIC50	Structure (SMILES)
≥ 6.00	CC(C)Cc1sc(Nc2nccc(-c3ccccc3)c2C(=O)O)nc1-c1ccc(Cl)c(Cl)c1 [I-241]
≥ 6.00	CC(C)c1sc(Nc2ncc(-c3ccccn3)cc2C(=O)O)nc1-c1ccc(Cl)c(Cl)c1 [I-282, 6′-(4-(3,4-dichlorophenyl)-5-isopropylthiazol-2-ylamino)-2,3′-bipyridine-5′-carboxylic acid]
≥ 6.00	COc1ccnc(Nc2nc(-c3ccc(Cl)c(Cl)c3)c(CC(C)C)s2)c1C(=O)O [I-243]
≥ 6.00	CC(C)Cc1sc(Nc2ccc(Cl)c(C(=O)O)c2)nc1-c1ccc(Cl)c(Cl)c1 [I-208]
≥ 6.00	CC(C)c1sc(Nc2ncc(-c3cccs3)cc2C(=O)O)nc1-c1ccc(Cl)c(C(F)(F)F)c1 [I-263]
< 5.00	CC(C)Cc1sc(NCC(C(=O)O)N(C)C)nc1-c1ccc(Cl)c(Cl)c1 (centres unmarked) [I-116, 3-(4-(3,4-dichlorophenyl)-5-isobutylthiazol-2-ylamino)-2-(dimethylamino)propanoic acid]
5.00 to 6.00	CC(C)Cc1sc(NCC(Cc2ccncn2)C(=O)O)nc1-c1ccc(Cl)c(Cl)c1 (centres unmarked) [I-161]
5.00 to 6.00	CC(C)Cc1sc(NCC(Cc2cccc(S(C)(=O)=O)c2)C(=O)O)nc1-c1ccc(Cl)c(Cl)c1 (centres unmarked) [I-172]
≥ 6.00	CC(C)c1sc(NCC(Cc2ccccc2)C(=O)O)nc1-c1ccc(Cl)c(Cl)c1 (centres unmarked) [I-1, 2-benzyl-3-(4-(3,4-dichlorophenyl)-5-isopropylthiazol-2-ylamino)propanoic acid]
5.00 to 6.00	CC(C)Cc1sc(Nc2ccsc2C(=O)NCCN)nc1-c1ccc(Cl)c(Cl)c1 [I-276, N-(2-aminoethyl)-3-(4-(3,4-dichlorophenyl)-5-isobutylthiazol-2-ylamino)thiophene-2-carboxamide]
5.00 to 6.00	CC(C)c1sc(Nc2ccsc2C(=O)NCCN)nc1-c1ccc(Cl)c(Cl)c1 [I-277]
5.00 to 6.00	CC(C)c1sc(NCC(Cc2cccc3c2OCO3)C(=O)O)nc1-c1ccc(Cl)cc1 (centres unmarked) [I-39]
5.00 to 6.00	COc1ccccc1CC(CNc1nc(-c2ccc(Cl)c(Cl)c2)c(C2CC2)s1)C(=O)O (centres unmarked) [I-12]
< 5.00	COc1cccc(-c2nc(NCC(Cc3ccccc3)C(=O)O)sc2C(C)C)c1 (centres unmarked) [I-28]
≥ 6.00	COc1ccccc1CC(CNc1nc(-c2ccc(Cl)c(Cl)c2)c(C(C)C)s1)C(=O)O (centres unmarked) [I-3]
≥ 6.00	CC(C)Cc1sc(NCC(Cc2cccc3[nH]ccc23)C(=O)O)nc1-c1ccc(Cl)c(Cl)c1 (centres unmarked) [I-25]
5.00 to 6.00	CC(C)Cc1sc(NCC(Cc2cccnc2)C(=O)O)nc1-c1ccc(Cl)c(Cl)c1 (centres unmarked) [I-155]
5.00 to 6.00	CC(C)Cc1sc(Nc2cncc(C(=O)O)c2)nc1-c1ccc(Cl)c(Cl)c1 [I-221, 5-(4-(3,4-dichlorophenyl)-5-isobutylthiazol-2-ylamino)nicotinic acid]
5.00 to 6.00	CC(C)Cc1sc(-c2cc(C(=O)O)ccn2)nc1-c1ccc(Cl)c(Cl)c1 [I-238]

pIC50	Structure (SMILES)
5.00 to 6.00	CC(C)Cc1sc(NCC(Cc2cccc(C(=O)N(C)C)c2)C(=O)O)nc1-c1ccc(Cl)c(Cl)c1 (centres unmarked) [I-168, 3-(4-(3,4-dichlorophenyl)-5-isobutylthiazol-2-ylamino)-2-(3-(dimethylcarbamoyl)benzyl)propanoic acid]
5.00 to 6.00	CC(C)Cc1sc(NCC(Cc2ccc(S(C)(=O)=O)cc2)C(=O)O)nc1-c1ccc(Cl)c(Cl)c1 (centres unmarked) [I-175]
5.00 to 6.00	CC(C)c1sc(NCC(Cc2cccc3[nH]ccc23)C(=O)O)nc1-c1ccc(Cl)c(Cl)c1 (centres unmarked) [I-8]
5.00 to 6.00	CC(C)Cc1sc(Nc2cc(C(=O)O)ccn2)nc1-c1ccc(Cl)c(Cl)c1 [I-222]
≥ 6.00	CCOc1ccc(-c2nc(Nc3ncc(-c4cccs4)cc3C(=O)O)sc2CC(C)C)cc1Cl [I-330]
≥ 6.00	CC(C)c1sc(NCC(CCc2ccccc2)C(=O)O)nc1-c1ccc(Cl)c(Cl)c1 (centres unmarked) [I-6]
≥ 6.00	CC(C)c1sc(Nc2c(C(=O)O)sc3ccccc23)nc1-c1ccc(Cl)c(Cl)c1 [I-280]
5.00 to 6.00	CC(C)Cc1sc(Nc2cccc(C(=O)O)n2)nc1-c1ccc(Cl)c(Cl)c1 [I-219]
≥ 6.00	CC(C)c1sc(Nc2ncc(-c3ccccc3)cc2C(=O)O)nc1-c1ccc(Cl)c(Cl)c1 [I-259, 2-(4-(3,4-dichlorophenyl)-5-isopropylthiazol-2-ylamino)-5-phenylnicotinic acid]
5.00 to 6.00	CC(C)Cc1sc(NCC(Cc2ccc(O)nc2)C(=O)O)nc1-c1ccc(Cl)c(Cl)c1 (centres unmarked) [I-162]
≥ 6.00	CC(C)c1sc(N(CCC(=O)O)Cc2ccccc2)nc1-c1ccc(Cl)c(Cl)c1 [I-74]
5.00 to 6.00	CC(C)Cc1sc(Nc2ccncc2C(=O)O)nc1-c1ccc(Cl)c(Cl)c1 [I-254]
5.00 to 6.00	CC(C)Cc1sc(Nc2nnccc2C(=O)O)nc1-c1ccc(Cl)c(Cl)c1 [I-239]
5.00 to 6.00	CC(C)Cc1sc(-c2cccc(C(=O)O)n2)nc1-c1ccc(Cl)c(Cl)c1 [I-228, 6-(4-(3,4-dichlorophenyl)-5-isobutylthiazol-2-yl)picolinic acid]
≥ 6.00	CC(C)c1sc(Nc2ncc(-c3ccccc3)cc2C(=O)O)nc1-c1ccc(Cl)c(C(F)(F)F)c1 [I-262, 2-(4-(4-chloro-3-(trifluoromethyl)phenyl)-5-isopropylthiazol-2-ylamino)-5-phenylnicotinic acid]
≥ 6.00	CC(C)c1sc(Nc2ncc(Cc3ccccc3)cc2C(=O)O)nc1-c1ccc(Cl)c(C(F)(F)F)c1 [I-265]
≥ 6.00	COc1ccc(-c2nc(Nc3ncc(C(F)(F)F)cc3C(=O)O)sc2C(C)C)cc1Cl [I-326]
≥ 6.00	Cn1nnnc1-c1sc(Nc2ncccc2C(=O)O)nc1-c1ccc(Cl)c(Cl)c1 [I-257, 2-(4-(3,4-dichlorophenyl)-5-(1-methyl-1H-tetrazol-5-yl)thiazol-2-ylamino)nicotinic acid]
